Source: PubChem BioAssay AID449764 (Southern Research Specialized Biocontainment Screening …, 2010)

System: Mycobacterium tuberculosis H37Rv growth inhibition, no glycerol
Assay: Mycobacterium tuberculosis H37Rv growth inhibition, no glycerol, confirmatory dose response (AID 449764);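 also: growth read after 7 days of incubation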
Conditions: for IC90: measured here: IC90 growth inhibition

SMILES | IC50 | IC90
Cc1ccc(/C(N)=N/OC(=O)N2c3ccccc3Sc3ccccc32)cc1 | 92.7 µM | > 100 µM
O=C(OCc1nc2ccccc2s1)c1ccc(Br)o1 | 33.5 µM | > 50 µM
CC1=NOC(=O)/C1=C/c1ccc(-c2ccc(Cl)cc2)o1 | 18.4 µM | > 100 µM
COCCCn1c(SCc2cccc(OC)c2)nc2cc(OC)c(OC)cc2c1=N | 33.9 µM | 44.6 µM
COCCCN=C1NN=C(c2cc(C)n(Cc3ccco3)c2C)CS1 | 70.7 µM | 92.2 µM
CCOC(=O)Oc1c(OC)cc(C(=O)O[C@@H]2C[C@@H]3CN4CCc5c([nH]c6cc(OC)ccc56)[C@H]4C[C@@H]3[C@H](C(=O)OC)[C@H]2OC)cc1OC | 26.5 µM | 39.1 µM
CC(C)(C)Nc1nc(NC(C)(C)C)nc(-n2ccnc2)n1 | 59.9 µM | 98.5 µM
CSc1ccccc1OCc1cc(C(=O)N2CCC(Oc3cccnc3)CC2)no1 | 28.3 µM | 37.3 µM
CCCCCCc1cc2cc(C(=O)NCc3ccccc3)c(=N)oc2cc1O | 5.67 µM | 6.45 µM
CC(=O)Nc1sc2c(c1-c1nc3ccccc3s1)CCN(C(C)C)C2 | 8.64 µM | 11.2 µM
Cc1ccc2c(c1)nnn2C1CCN(CC(=O)N2CCN(c3ccc(F)cc3)CC2)CC1 | 36.8 µM | 54.7 µM
CCOC(=O)C1=C(C)Nc2nc(SCC(=O)OC)nn2C1c1cc(F)cc(F)c1 (centres undefined) | 9.99 µM | 12.5 µM
CC(C)(C)NC(=O)C(c1c[nH]c2ccccc12)N(C(=O)Cn1nnc(-c2ccc(F)cc2)n1)c1cccc(O)c1 (centres undefined) | 34.7 µM | 45.6 µM
CCNc1nc(NCC)nc(N/N=C/c2ccc([N+](=O)[O-])o2)n1 | 1.3 µM | 1.7 µM
COc1ccc2c(c1)CC/C(=C\C=C\c1ccccc1OC)C2=O | – | > 100 µM
CCOC(=O)N1CCN(c2nc(N(c3ccccc3)c3ccccc3)nc(-n3ccnc3)n2)CC1 | 98.2 µM | > 100 µM
c1ccc(CSc2ccc(-c3ccccn3)nn2)cc1 | 89.4 µM | 94.2 µM
CCCCCc1nc2c(c(=O)c3ccccc3n2C)c(=O)n1C1CCCCCC1 | 55.6 µM | 77.5 µM
Cc1ccc(NC(=O)CCl)cc1S(=O)(=O)N1CCCCCC1 | 10.1 µM | 14.8 µM
CCCc1ccc(NC(=O)C2CCN(c3cnccn3)CC2)cc1 | 67.2 µM | 82.7 µM

SMILES | IC50 | IC90
CCOc1ccc(-c2cc(CCCC(=O)NCCC(C)C)no2)cc1 | 22.6 µM | 25.7 µM
Cc1[nH]n(-c2ccccc2)c(=O)c1C(C[N+](=O)[O-])c1ccccc1Cl (centres undefined) | 23.4 µM | 27.1 µM
COc1cc(/C=C/C(=O)c2c(O)n(CCc3ccccc3)c(=O)[nH]c2=O)ccc1O | 14.3 µM | 21.8 µM
Cc1ccc(C)c(NC(CC(=O)c2ccccc2)C(=O)OCC(=O)c2cccs2)c1 (centres undefined) | 11.1 µM | 11.7 µM
CCSc1ncc(/C=N/Nc2ccccc2)n1C | 82.6 µM | > 100 µM
CCc1cccc2c(C(=O)CCl)c[nH]c12 | 4.05 µM | 7.83 µM
N#C/C(=C/c1ccc(Sc2nc3ccccc3[nH]2)o1)c1cccc(Br)c1 | 57.9 µM | > 100 µM
CC[C@@H](C)[C@H](CN[C@H](CNC)C(C)C)NC[C@@H](C)c1ccc(CC(C)C)cc1 | 13.3 µM | 15.4 µM
COc1ccc(C(=O)COC(=O)[C@H](C)Nc2ccc(C(F)(F)F)cc2[N+](=O)[O-])cc1 | 18.1 µM | > 25 µM
Cc1cc(C)c2c(CN3CCN(Cc4ccccc4)CC3)cc(=O)oc2c1C | 48.1 µM | 55.2 µM
COc1cc2c(cc1NC(=O)CN1C(=O)NC3(CCc4ccccc43)C1=O)oc1ccccc12 (centres undefined) | 19.9 µM | > 100 µM
S=C(Nc1ccc(Nc2ccccc2)cc1)Nc1ccccn1 | 48.6 µM | > 50 µM
N=c1oc2cc(O)ccc2cc1C(=O)Nc1ccc(Br)cc1 | 1.72 µM | 3.96 µM
O=C(OCC(=O)c1cccs1)C1=COCCO1 | 29.9 µM | > 100 µM
CCOC(=O)c1c(NC(=O)CCl)sc(CN(C)C)c1-c1ccccc1 | 2.99 µM | 10.7 µM
CC(C)(O)[C@H]1O[C@H]2CC[C@@]3(C)[C@@](O)(CC[C@H]4Cc5c([nH]c6ccccc56)[C@@]43C)C2=CC1=O | 48.7 µM | > 100 µM
Cc1ccc(S(=O)(=O)n2ccc3c(OCCOCCNCc4ccc(F)cc4)cccc32)cc1 | 23 µM | 26 µM
Nc1c2c(nc3ccn(Cc4ccccc4)c(=O)c13)CCC2 | 9.72 µM | 15.9 µM
COc1ccc(C(C)=O)cc1COC(=O)c1ccc2ccccc2n1 | 60.3 µM | > 100 µM
CCN1C(N(C)CCc2c[nH]c3ccccc23)=N[C@@H](c2cccc(C(F)(F)F)c2)C(C(=O)OC)=C1C | 22 µM | 25 µM

SMILES | IC50 | IC90
CC1=NN(c2ccccc2)C(=O)C1C(=O)c1ccccc1 (centres undefined) | 50.6 µM | 78 µM
CC(C)(C)c1ccc(C(O)CCCN2CCC(C(O)(c3ccccc3)c3ccccc3)CC2)cc1 (centres undefined) | 12 µM | 13.7 µM
Cc1ccc(NC(=O)COc2ccccc2CNC(C)(C)CC(C)(C)C)cc1 | 24.6 µM | 36.2 µM
Cc1cc(C(=O)CCl)c(C)n1CCc1ccc(Cl)cc1 | 3.95 µM | 9.41 µM
CCCCCn1c(=O)c2ccccc2n2c(CCl)nnc12 | 1.36 µM | 6.07 µM
Cc1c(OCc2ccccc2)c(=O)ccn1Cc1ccc(Cl)cc1 | 57.6 µM | 95.9 µM
CCc1ccc(/C=C2/C(=O)N(C)C(=S)N2CC(=O)OC)s1 | 4.81 µM | 6.97 µM
CC(=O)c1ccc(N2CCC(c3cc(-c4ccc(Cl)cc4Cl)n[nH]3)CC2)c([N+](=O)[O-])c1 | 24.3 µM | > 100 µM
O=C(c1ccc(-c2cccc(C(F)(F)F)c2)o1)N1CCN(c2ccccc2O)CC1 | 24 µM | 27.5 µM
Cc1ccc(-n2cc(CN(C)Cc3nccn3C)c(-c3cccc(C)c3)n2)cc1 | 13.1 µM | 17.4 µM
N/C(=N\NC(=O)c1sccc1OCc1ccc(Cl)cc1Cl)c1ccccn1 | 32.3 µM | 39.4 µM
Cc1ccc2nc(-c3cccc(Br)c3)cc(C(=O)NC3=NCCS3)c2c1 | 27.8 µM | 43.2 µM
CCCc1cc(-c2nc(-c3ccc(Br)cc3)cs2)ccn1 | 16.4 µM | 24.6 µM
Cc1cc(C)n(C(=O)c2ccc([N+](=O)[O-])cc2[N+](=O)[O-])n1 | 8.89 µM | 12.3 µM
O=C(OCc1csc(Nc2ccccc2)n1)c1ccc(Cl)cc1 | 46.4 µM | 53 µM
c1ccc(Cn2c(CNc3nc4ccccc4n3CCN3CCCCC3)nc3ccccc32)cc1 | 44.6 µM | 72.8 µM
CCOC(=O)COc1ccc2c(c1)C(=O)CC(C)(c1cccnc1)O2 (centres undefined) | 13.4 µM | 32.5 µM
CCOC(=O)c1sc(NC(=O)CN2C(=O)NC3(CC(C)CC(C)(C)C3)C2=O)cc1C (centres undefined) | 34.1 µM | 48.4 µM
CC[C@H](C)[C@@H]1O[C@@]2(C=CC1C)CC1C[C@@H](CC=C(C)C(O[C@H]3CC(OC)C(O[C@H]4CC(OC)C(O)C(C)O4)C(C)O3)C(C)C=CC=C3CO[C@@H]4C(O)C(C)=C[C@@H](C(=O)O1)[C@]34O)O2 (some centres undefined) | 16.5 µM | 27.3 µM
CCCC(/C=C/c1ccc(OC(C)=O)cc1)=C1/c2ccccc2C(=O)N1c1ccccc1 | 13.2 µM | 20.9 µM
